The source of these data is publication PMC11358882, “Neuroprotective Effects of Phenolic Constituents from Drynariae Rhizoma” (Pharmaceuticals, 2024).

SMILES strings stand for the structures. Several values for one entry are separate records, joined by “and”; a condition that tells them apart may be missing. Equal values may be shown once.

Assay [1] addresses T1, BChE from equine serum (Equus caballus, UniProt P81908).
T1 construct: BChE from equine serum; purchased Sigma-Aldrich Co., St. Louis, USA; host or cells: equine serum
In words: biochemical. The format is biochemical. The settings on record: isolated compounds; mean ± SD, n = 3; ND = no detection using test concentration; read-out: IC50 BChE. How it is done: (§1) The AChE- and BChE-inhibitory, MTT, and Th T assays were analyzed using a UV–visible (VIS) spectrophotometer (Biotek, EPOCH2, Winooski, VT, USA), ensuring accurate measurements. For BACE1- and MAO-B-inhibitory assays, a multimode microplate reader (SpectraMax M3, Molecular Devices, San Jose, CA, USA) was employed, providing precise readings. Analytical-grade DMSO from DEAJUNG Chemical, Korea, served as a solvent in the bioassays. Reagents and solvents, including AChE from electric eel, acetylthiocholine iodide (ATCh), BChE from equine serum, S-butyrylthiocholine iodide (BTCh), 5,5′-dithiobis [2-nitrobenzoic acid] […] Additionally, the BACE1-inhibitory assay utilized the BACE1 (β-secretase) FRET assay kit from PanVera® Corporation, Madison, USA, while the MAO-B-inhibitory assay employed the MAO-B Inhibitor Screening Kit (Fluorometric) ab284511 from Abcam plc Co., Cambridge, UK.
(§2) The inhibitory activities against cholinesterases (AChE and BChE) were evaluated using a spectrophotometric method previously developed by Ellman et al.. Specifically, ATCh and BTCh were used as substrates to measure the inhibitory effects on AChE and BChE, respectively. The assay mixture consisted of 140 μL of 0.1 M sodium phosphate buffer at pH 7.8, 20 μL of a 0.38 U/mL solution of either AChE or BChE, and 20 μL of the test sample solution. This mixture was thoroughly mixed and then incubated at room temperature for 15 min. […] Reactions were initiated by adding 10 μL of 0.5 mM DTNB and 10 μL of either 0.6 mM ATCh or BTCh. ChE-inhibitory activity was monitored by measuring the formation of the yellow 5-thio-2-nitrobenzoate anion at 412 nm over 15 min (Epoch, BioTek, Winooski, VT, USA), resulting from the reaction of DTNB and thiocholine released from ATCh or BTCh. All reactions were conducted in 96-well microplates and performed in triplicate. The percentage of inhibition (%) was determined using the following formula: inhibition (%)={(Ac−As)/Ac}×100 , where Ac represents the enzyme activity in the absence of the test sample, and As represents the enzyme activity in the presence of the test sample. The ChE-inhibitory activities of each sample were quantified in terms of IC50, which was calculated from the log–dose inhibition curve.

In assay [2] the target is T2, AChE from electric eel (Electrophorus electricus, UniProt O42275).
T2 construct: purchased Sigma-Aldrich Co., St. Louis, USA
T2 sequence (O42275 24-633): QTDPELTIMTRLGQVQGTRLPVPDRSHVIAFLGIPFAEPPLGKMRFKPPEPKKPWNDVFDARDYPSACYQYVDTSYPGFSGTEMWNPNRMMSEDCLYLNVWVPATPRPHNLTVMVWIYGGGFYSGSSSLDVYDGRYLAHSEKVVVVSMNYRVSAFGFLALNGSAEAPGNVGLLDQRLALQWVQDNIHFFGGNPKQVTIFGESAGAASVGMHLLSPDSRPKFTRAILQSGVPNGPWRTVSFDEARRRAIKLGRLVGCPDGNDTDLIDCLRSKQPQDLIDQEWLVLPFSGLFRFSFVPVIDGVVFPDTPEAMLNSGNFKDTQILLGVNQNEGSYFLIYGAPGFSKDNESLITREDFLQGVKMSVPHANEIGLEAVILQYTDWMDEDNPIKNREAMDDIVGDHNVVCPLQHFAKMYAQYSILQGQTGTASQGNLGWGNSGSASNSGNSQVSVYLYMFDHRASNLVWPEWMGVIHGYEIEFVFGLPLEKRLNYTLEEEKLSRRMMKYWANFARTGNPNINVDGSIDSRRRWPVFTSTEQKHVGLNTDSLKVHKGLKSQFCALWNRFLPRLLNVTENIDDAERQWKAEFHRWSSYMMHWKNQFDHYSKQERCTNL
In words: biochemical. The assay is classed as biochemical. The settings on record: isolated compounds; mean ± SD, n = 3; ND = no detection using test concentration; read-out: IC50 AChE. How it is done: as §1, §2

Assay [3] relates to β-secretase. In words: Western blot of β-secretase levels in APP-CHO cells. The format is cell-based, Chinese hamster. The settings on record: 1.0 μM, 24 h. How it is done: APP-CHO cells were seeded in six-well plates at a density of 6 × 10^5 cells/1000 μL of medium per well and incubated at 37 °C overnight for cell attachment. Then, the medium was replaced with FBS-free RPMI 1640 for 1 h, followed by treatment with test samples at 37 °C. After 24 h, the cells were washed with PBS and lysed in Laemmli sample buffer. The collected cell lysates were boiled at 100 °C for 10 min. For Western blot analysis, 20 μg of proteins were separated by 7.5% SDS-PAGE and transferred to a PVDF membrane using Trans-Blot® Turbo TM (Bio-Rad, Hercules, CA, USA). The membrane was blocked with 5% skim milk in PBS for 1 h and incubated with primary antibodies overnight at 4 °C. The primary antibodies used were sAPPβ antibody, BACE1 antibody, and α-tubulin antibody diluted at 1:1000, 1:1000, and 1:25,000, respectively. After washing with PBS-T (0.1% Tween 20 in PBS) three times for 10 min each, secondary antibodies, diluted to 1:2500, were incubated for 1 h. Protein detection was performed using ECL solution reagent and protein visualization (ChemiDoc^TM XRS+., Bio-Rad, Hercules, CA, USA). The signal intensity of the bands was quantified and normalized to the signal intensity of the α-tubulin band. Results were expressed as a percentage of DMSO-treated control.

For assay [4], the target named is T3, Aβ1-42 (Homo sapiens, UniProt P05067).
T3 construct: Aβ1-42 used for the Th T assay was purchased from GL Biochem, Shanghai, China; purchased GL Biochem, Shanghai, China
T3 sequence (P05067 672-713 limits assumed): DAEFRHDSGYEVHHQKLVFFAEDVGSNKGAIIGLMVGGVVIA
In words: Thioflavin T assay, disaggregation of preformed Aβ aggregates. The format is biochemical. The settings on record: 24 h with Aβ pre-aggregated for 24 h. How it is done: The Th T assay was conducted to assess the aggregation of Aβ into oligomers and fibrils. Aβ1-42 was dissolved in DMSO at a concentration of 1 mg/mL, and test samples were also dissolved in DMSO. Aβ1-42 (20 μM) was incubated with various concentrations of test samples at 37 °C for 24 h to evaluate the effects of test samples on Aβ aggregation. Subsequently, 3 μM of Th T was added, and fluorescence was measured after 30 min using an E-max precision microplate reader with excitation at 442 nm and emission at 485 nm (Epoch, BioTek, Winooski, VT, USA). Aβ treated with DMSO only served as a control, and each assay was performed in triplicate. Then, the Th T assay was performed to assess the effects of test samples on the disaggregation of preformed Aβ aggregates. Briefly, 20 μM of Aβ1-42 was incubated at 37 °C for 24 h. Various concentrations of test samples were then added and incubated at 37 °C for an additional 24 h. Subsequently, 3 μM of Th T was added, and fluorescence was measured after 30 min using an E-max precision microplate reader with excitation at 442 nm and emission at 485 nm (Epoch, BioTek, Winooski, VT, USA). Aβ treated with DMSO only served as a control, and each assay was performed in triplicate.

T1 sequence (P81908 whole entry): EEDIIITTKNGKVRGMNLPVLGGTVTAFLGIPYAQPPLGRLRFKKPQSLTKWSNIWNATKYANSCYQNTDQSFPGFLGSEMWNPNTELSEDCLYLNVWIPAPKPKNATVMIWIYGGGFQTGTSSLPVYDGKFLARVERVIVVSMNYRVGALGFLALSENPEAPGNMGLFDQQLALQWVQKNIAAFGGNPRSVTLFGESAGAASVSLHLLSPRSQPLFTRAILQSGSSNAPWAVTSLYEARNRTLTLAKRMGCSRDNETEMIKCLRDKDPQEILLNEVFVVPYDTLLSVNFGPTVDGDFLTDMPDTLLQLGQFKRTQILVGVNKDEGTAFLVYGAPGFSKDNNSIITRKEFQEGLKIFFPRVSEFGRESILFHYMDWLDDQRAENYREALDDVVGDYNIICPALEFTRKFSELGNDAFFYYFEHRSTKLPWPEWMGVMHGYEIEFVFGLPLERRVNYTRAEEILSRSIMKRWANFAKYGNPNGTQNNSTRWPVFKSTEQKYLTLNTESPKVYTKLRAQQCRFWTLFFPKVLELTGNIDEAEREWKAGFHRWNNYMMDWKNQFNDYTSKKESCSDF

For the molecule `C[C@@H]1O[C@@H](Oc2c(-c3ccc(O)cc3)oc3cc(O[C@@H]4O[C@H](CO)[C@@H](O)[C@H](O)[C@H]4O)cc(O)c3c2=O)[C@H](O)[C@H](O)[C@H]1O` [Compound 6, kaempferol 3-O-rhamnoside 7-O-glucoside], the IC50 came to 32.6 ± 5.66 µM in assay [1] and 353.43 ± 0.32 µM in assay [2]. Also, in assay [3], the “reduction of β-secretase levels compared to DMSO-treated controls” value stood at 30%. Further, in assay [4] (1.0 μM), the “degradation of preformed Aβ aggregates” value is listed as “approximately 45%”.

As for `O=c1c(O[C@@H]2O[C@H](CO)[C@@H](O)[C@H](O)[C@H]2O)c(-c2ccc(O)cc2)oc2cc(O[C@@H]3O[C@@H](CO)[C@H](O)[C@H]3O)cc(O)c12` [Compound 7, kaempferol 3-o-b-d-glucopyranoside-7-o-a-L-arabinofuranoside], the IC50 worked out at 28.8 ± 0.31 µM in assay [1] and 47.33 ± 0.22 µM in assay [2]. In addition, the “reduction of β-secretase levels compared to DMSO-treated controls” value in assay [3] is 40% and 30%. In addition, the “degradation of preformed Aβ aggregates” value in assay [4] (0.5 μM) was approximately 60%.
